Test results reported in US20090305954A1, “HISTIDINE-CONTAINING DIASTEREOMERIC PEPTIDES AND USES THEREOF” (Yeda Research and Development Co. Ltd., priority 2005, published 2009).
Converted amounts (≈) assume the structure as drawn. Where two headings read alike, the source gives them in different places. Square brackets hold non-standard residues; d marks the D form. Peptide text beside a SMILES is read from it.

Legend:
[1] = tested on: pepsin, trypsin, and elastase; experiment: Resistance to proteolytic digestion (reverse-phase HPLC); type: in vitro ADME; details: after 2 hr, 140 μM peptide, 25 μM protease, 37° C.
Procedure: In order to reach their target, the diastereomers have to withstand proteolytic digestion of proteases, which may occur after their administration and during the time until they reach the target site. The susceptibility of the peptides 13 and 14 to proteolytic digestion by pepsin (from porcine stomach mucosa, Sigma), trypsin (from bovine pancreas, Sigma), and elastase (from human leukocytes, Sigma) was assessed by reverse-phase HPLC. As a negative control, the all L-amino acid analog peptides were used. Equal amounts of the peptides were dissolved in PBS (35 mM phosphate buffer/0.15 M NaCl, pH 7.3) at a final concentration of 140 μM, to which 25 μM of protease were added. […] After the addition of the appropriate protease inhibitor to stop the reaction, aliquots were injected to C18 column and the amounts of the intact peptides 13 and 14 and their all L analogs were evaluated using their absorbance at 215 nm.

[2] = Interaction with Matrigel matrix, analysed by RP-HPLC and mass spectroscopy; type: in vitro ADME; details: mixed with Matrigel matrix for one hour
[3] = XTT proliferation (cytotoxicity) assay, normal fibroblasts; type: cell-based, mouse; details: mouse, NIH-3T3 normal mouse fibroblasts, read-out: Lethal Concentration (LC50)
Procedure: (§1) The CL1 human prostate carcinoma (PC) cell line is an androgen-independent (AI) subclone of LNCaP cell line, which was generated by culturing androgen-dependent (AD) LNCaP cells in charcoal-stripped, […], as described (Patel et al. 2000). 22RV1 human PC cells are AI sub-clones of the AD prostatic adenocarcinoma CWR22 xenograft (Sramkoski et al. 1999). CL1 and 22RV1 (ATCC, USA) were grown in RPMI-1640 supplemented with 10% FCS (Biological Industries, Beit Haemek, Israel). PC3 and DU145 are androgen-insensitive (AI) (non-responsive), invasive human prostate cancer cell lines. NIH-3T3 mouse fibroblast cell lines (ATCC, USA) were grown in DMEM supplemented with 10% BS. Murine Lewis lung carcinoma (LLC) cell lines were also grown in DMEM medium supplemented with 10% fetal calf serum and antibiotics under the same conditions as above.
(§2) The anticancer activity of the diastereomers 1, 5 and 11-16, 36-39, 42 and 44 was examined against human CL1 prostate cancer, murine LLC (Lewis lung carcinoma), DU 145 and PC3 cell lines. The cell selectivity of the diastereomeric peptides was also studied by examining their effect on NIH-3T3 normal mouse fibroblasts cell line.
(§3) A 96-well plate (Falcon) was used for the XTT proliferation assay. Cancer cells were grown for 24 hours (day 1) in RPMI-1640 medium ([…] cells/100 μl for LLC, CL1, 22RVI, DU 145 and PC3, respectively) supplemented with 10% fetal calf serum and antibiotics, at 37° C., in humidified atmosphere at 5% CO2 and 95% air, resulting in growth medium pH of 7.4. NIH-3T3 fibroblast cells (1×10^4 cells/100 μl) were grown in DMEM medium supplemented with 10% bovine calf serum and antibiotics under the same conditions as described above for the cancerous cells. Wells in the last two rows served as blanks (medium only, for measuring the background color of the medium) and 100% survival controls (cells and medium only without treatment), respectively.
(§4) In day 2, the peptides were dissolved in sterile PBS to a concentration of 200 μM (or 500 μM). The medium in the assay wells was replaced with 100 μl serum free medium. For the assays at pH 6, the medium was initially concentrated (×5 or ×10) and then diluted with double distilled water and addition of sodium carbonate. Before reaching the correct dilution, the medium was adjusted to pH 6 and then more water was added to reach the final dilution. The cells were grown in physiological pH, and the acidic pH was used only during the 24 hours incubation with the peptides. A sign for the correct acidity was a light yellow color of the medium. In line A of the plate, 160 μl of serum free medium was added, if the initial peptide concentration was 500 μM.
(§5) Peptide solutions, 100 μl (or 40 μl) were added to each assay well in line A, such that the final concentration of the peptide was […] and the volume 200 μl. The medium in the wells was mixed with multichannel pipette 5 times and 100 μl of it were transferred to the next row of wells (line B), to give a peptide concentration of 50 μM. The double dilution of the peptides continued downstream the plate in the same manner. The plates were then incubated for 24 h.
(§6) In day 3, XTT reaction solution was prepared by adding to 100 μl aliquots of activation solution (sodium 3′-[1-(phenyl-aminocarbonyl)-3,4-tetrazolium]-bis(4-methoxy-6-nitro) benzene sulfonic acid hydrate and N-methyl dibenzopyrazine methyl sulfate; mixed in a proportion of 50:1) (protected from light and kept in −20° C.), the substrate. 50 μl of XTT reaction solution were added to each well and the plates were incubated for 2 hours (37° C. and 5% CO2+95% air. In cases the incubation was not enough for the creation of the color, it was extended for up to 24 hours). The optical density was read at wavelength of 450 nm in an ELISA plate reader. Cell viability was determined relative to the control and final results were recorded. The results were confirmed using replications in at least three independent experiments. […]

[4] = tested on: CL1 human prostate carcinoma cell line; experiment: XTT proliferation (cytotoxicity) assay, CL1; type: cell-based
Procedure: as §1, §2, §3, §4, §5, §6

[5] = tested on: DU145 human prostate cancer cell line; experiment: XTT proliferation (cytotoxicity) assay, DU145; type: cell-based
Procedure: as §1, §2, §3, §4, §5, §6

[6] = tested on: Murine Lewis lung carcinoma (LLC) cell line; experiment: XTT proliferation (cytotoxicity) assay, LLC; type: cell-based
Procedure: as §1, §2, §3, §4, §5, §6

[7] = tested on: MDA-MB-231 breast tumor metastases in lymph nodes and lungs; experiment: Inhibition of formation of lung and lymph node metastases derived from breast cancer; type: in vivo, SCID/NCr mice
Text: Monitoring of solid metastases derived for breast tumor was done by in vivo fluorescence using IVIS as described above in (iii). At the end of the treatment (day 38), the mice were killed, and the lungs and lymph nodes were removed and monitored for fluorescence of metastases derived from the breast cancer. For metastases quantification, the lungs and right lymph nodes were excised and fixed in 4% buffered formaldehyde. Paraffin-embedded 5-μm sections were stained with H&E. The percentage of metastatic cell area of total section area was calculated using the Image-Pro plus 4.1 software. The dissected lungs and lymph nodes were analyzed by histology. […] Metastasis quantification was done according to areas from three different sections of each organ (P<0.005).

## CC(C)C[C@H](NC(=O)[C@H](CC(C)C)NC(=O)[C@@H](CCCCN)NC(=O)[C@H](CC(C)C)NC(=O)[C@H](CC(C)C)NC(=O)[C@H](Cc1c[nH]cn1)NC(=O)[C@@H](CCCCN)NC(=O)[C@@H](CC(C)C)NC(=O)[C@H](CC(C)C)NC(=O)[C@@H](CCCCN)NC(=O)[C@H](Cc1c[nH]cn1)NC(=O)[C@H](CC(C)C)NC(=O)[C@@H](CC(C)C)NC(=O)[C@H](CCCCN)NC(=O)[C@@H](N)CC(C)C)C(N)=O [Peptide 13] (H-LK[dL]LH[dK]L[dL][dK]HLL[dK]LL-NH2)
[1]
  proteases digestion: ~50%
[2]
  activity preserved upon interaction with the Matrigel matrix: ~50%
[3]; NIH3T3, pH 6, 24 h
  CC50 at 24 h: 19 µg/mL (≈ 10.4 µM)
[3]; NIH3T3, pH 7.4, 24 h
  CC50 at 24 h: 50 µg/mL (≈ 27.4 µM)
[4]; CL1, pH 6.0
  potency compared with diastereomer 1: similarly or significantly more potent
[4]; CL1, pH 6, 24 h
  Lethal Concentration (LC50): 6.25 µg/mL
[4]; CL1, pH 7.4, 24 h
  Lethal Concentration (LC50): 6.25 µg/mL
[5]; DU145, pH 6, 24 h
  Lethal Concentration (LC50): 18.7 µg/mL
[5]; DU145, pH 7.4, 24 h
  Lethal Concentration (LC50): 25 µg/mL
[6]; pH 6, 24 h
  Lethal Concentration (LC50): 12.5 µg/mL
[6]; pH 7.4, 24 h
  Lethal Concentration (LC50): 12.5 µg/mL
[7]; systemic administration
  lymph node metastasis fluorescence intensity: significant reduction
[7]; vs control untreated mice, P<0.005
  histology of lungs and lymph nodes: population by cancer cells: much less densely populated
